{"source": "ChEMBL document CHEMBL1201862", "about": "“PubChem BioAssay data set” (2004)", "key": {"[1]": {"molecular_target": "Induced myeloid leukemia cell differentiation protein Mcl-1 (Homo sapiens, UniProt Q07820)", "sequence (Q07820 whole entry)": "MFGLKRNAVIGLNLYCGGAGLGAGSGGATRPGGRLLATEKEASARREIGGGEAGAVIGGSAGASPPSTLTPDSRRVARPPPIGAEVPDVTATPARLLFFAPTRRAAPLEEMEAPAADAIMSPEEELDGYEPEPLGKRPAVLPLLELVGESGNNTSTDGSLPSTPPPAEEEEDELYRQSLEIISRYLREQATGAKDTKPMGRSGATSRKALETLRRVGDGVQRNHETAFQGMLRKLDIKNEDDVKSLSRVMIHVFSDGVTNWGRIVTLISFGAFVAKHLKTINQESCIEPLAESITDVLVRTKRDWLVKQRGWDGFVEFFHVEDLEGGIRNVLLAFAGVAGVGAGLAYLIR", "type": "functional"}, "[2]": {"molecular_target": "DNA (cytosine-5)-methyltransferase 1 (Homo sapiens, UniProt P26358)", "assay": "inhibition of DNA methylation by DNMT1 – biochemical, fluorescent molecular beacon, confirmation (AID 602386)", "type": "functional"}, "[3]": {"assay": "viability loss in THP-1 monocytes – THP-1 cells, cytotoxicity control for Vif-APOBEC3G degradation inhibitor project, dose response (AID 1117359)", "type": "functional", "settings": "THP-1"}, "Ephrin type-A receptor 4": {"molecular_target": "Ephrin type-A receptor 4 (Mus musculus, UniProt Q03137)", "sequence (Q03137 whole entry)": "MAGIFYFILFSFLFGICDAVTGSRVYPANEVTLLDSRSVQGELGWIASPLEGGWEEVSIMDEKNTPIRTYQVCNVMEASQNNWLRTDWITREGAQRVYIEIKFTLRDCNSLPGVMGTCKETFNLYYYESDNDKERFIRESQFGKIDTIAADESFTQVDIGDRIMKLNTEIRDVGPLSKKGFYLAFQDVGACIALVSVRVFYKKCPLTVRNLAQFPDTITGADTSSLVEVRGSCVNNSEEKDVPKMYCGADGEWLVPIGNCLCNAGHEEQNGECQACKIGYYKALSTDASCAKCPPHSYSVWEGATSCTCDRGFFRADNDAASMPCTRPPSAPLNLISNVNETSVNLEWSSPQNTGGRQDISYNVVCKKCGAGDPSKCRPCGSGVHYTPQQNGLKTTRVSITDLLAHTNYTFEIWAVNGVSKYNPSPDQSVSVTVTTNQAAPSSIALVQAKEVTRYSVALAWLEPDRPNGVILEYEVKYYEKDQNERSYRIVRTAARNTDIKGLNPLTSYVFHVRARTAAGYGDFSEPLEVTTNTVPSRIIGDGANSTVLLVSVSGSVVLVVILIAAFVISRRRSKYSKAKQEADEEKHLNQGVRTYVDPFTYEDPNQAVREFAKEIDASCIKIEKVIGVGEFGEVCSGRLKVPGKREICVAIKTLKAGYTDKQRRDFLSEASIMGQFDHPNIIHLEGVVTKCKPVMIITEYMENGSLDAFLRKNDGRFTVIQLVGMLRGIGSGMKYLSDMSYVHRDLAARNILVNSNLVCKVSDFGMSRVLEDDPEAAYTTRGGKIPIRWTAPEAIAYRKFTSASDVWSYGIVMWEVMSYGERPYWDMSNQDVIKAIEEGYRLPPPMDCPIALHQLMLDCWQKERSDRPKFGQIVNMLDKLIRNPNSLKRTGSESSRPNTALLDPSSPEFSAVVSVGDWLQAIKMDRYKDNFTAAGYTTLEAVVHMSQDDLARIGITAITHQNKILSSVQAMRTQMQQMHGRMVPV", "assay": "EphA4 ligand-binding antagonists – biochemical, colorimetric, mouse EphA4, primary screen (AID 689)", "type": "functional"}, "Bcl-2-like protein 10": {"molecular_target": "Bcl-2-like protein 10 (Homo sapiens, UniProt Q9HD36)", "sequence (Q9HD36 whole entry)": "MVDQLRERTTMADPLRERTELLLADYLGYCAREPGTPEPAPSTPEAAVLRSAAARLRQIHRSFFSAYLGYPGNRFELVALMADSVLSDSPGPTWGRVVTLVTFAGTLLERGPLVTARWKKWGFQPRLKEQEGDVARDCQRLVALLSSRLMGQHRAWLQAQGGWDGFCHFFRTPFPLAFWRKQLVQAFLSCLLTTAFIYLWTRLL", "assay": "Bcl-B/TR3 peptide binding disruption – biochemical, fluorescence polarization, FITC-TR3 peptide, selectivity assay for Bfl-1 inhibitor project, primary screen (AID 748);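 note: fluorescence polarization from a fluorescein-labelled TR3 peptide binding purified Bcl-B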"}, "Vero [4]": {"system": "Vero", "assay": "Vero cell viability after compound exposure – synthesized analogs, set II, cytotoxicity control for West Nile virus antiviral project, SAR follow-up (AID 2402)", "type": "functional", "settings": "Chlorocebus sabaeus"}, "[5]": {"molecular_target": "5-hydroxytryptamine receptor 1A (Homo sapiens, UniProt P08908)", "sequence (P08908 whole entry)": "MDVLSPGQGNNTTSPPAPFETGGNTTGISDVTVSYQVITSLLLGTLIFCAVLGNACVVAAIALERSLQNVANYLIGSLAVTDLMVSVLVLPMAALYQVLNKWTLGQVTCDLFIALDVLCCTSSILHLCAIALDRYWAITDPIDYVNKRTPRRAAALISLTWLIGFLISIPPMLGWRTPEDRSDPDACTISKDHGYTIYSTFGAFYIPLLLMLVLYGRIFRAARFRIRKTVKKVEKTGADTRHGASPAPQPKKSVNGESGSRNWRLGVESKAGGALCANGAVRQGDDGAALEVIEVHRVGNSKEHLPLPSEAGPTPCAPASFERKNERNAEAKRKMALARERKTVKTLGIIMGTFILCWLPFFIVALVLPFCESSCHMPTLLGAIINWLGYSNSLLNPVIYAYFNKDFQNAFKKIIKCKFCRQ", "type": "functional"}, "[6]": {"assay": "Luminescence Cell-Based Dose Retest to Confirm Inhibitors of Cancer Stem Cells. [Related pubchem assays (depositor defined):AID2717, AID2721]", "type": "functional", "settings": "Homo sapiens"}, "INS1": {"system": "INS1", "assay": "INS-1E survival protection against cytokine death – cell-based, luminescence, retest, dose response (AID 449756);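 note: cell death triggered by IL-1 beta plus TNF-alpha plus IFN-gamma mixture; protective hits raise ATP signal compared with cytokine alone wells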", "type": "functional", "settings": "Rattus norvegicus"}, "[7]": {"molecular_target": "T1, Mannose-6-phosphate isomerase (Homo sapiens, UniProt P34949)", "T1 sequence (P34949 whole entry)": "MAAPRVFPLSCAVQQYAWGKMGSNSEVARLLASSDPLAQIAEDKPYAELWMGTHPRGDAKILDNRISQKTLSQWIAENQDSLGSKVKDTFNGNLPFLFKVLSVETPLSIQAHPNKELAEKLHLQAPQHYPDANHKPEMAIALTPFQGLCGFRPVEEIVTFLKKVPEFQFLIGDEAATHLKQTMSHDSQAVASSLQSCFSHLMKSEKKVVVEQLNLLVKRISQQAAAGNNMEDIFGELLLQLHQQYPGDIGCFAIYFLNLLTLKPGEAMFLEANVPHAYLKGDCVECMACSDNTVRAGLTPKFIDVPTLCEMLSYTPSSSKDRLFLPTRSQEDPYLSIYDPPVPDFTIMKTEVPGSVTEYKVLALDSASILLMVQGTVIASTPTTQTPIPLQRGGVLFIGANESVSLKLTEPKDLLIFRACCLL", "assay": "MPI enzyme activity inhibition – biochemical, fluorescence intensity, coupled assay, primary screen (AID 1209)"}, "[8]": {"assay": "NIH3T3 cell viability loss – ATP luminescence, mouse fibroblasts, counter-screen, dose response (AID 2010);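 note: cells exposed to compound for about 90 hours before reading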", "type": "functional, cell-based"}, "[9]": {"assay": "Trypanosoma cruzi growth suppression in host cells – NIH3T3 host cells, beta-gal luminescence, confirmation (AID 2044);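 note: intracellular parasites grown in NIH/3T3 mouse fibroblasts as host cells; luminescent beta-galactosidase reporter signal from transgenic T. cruzi replicating inside host cells; inhibitors lower the luminescence signal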", "type": "functional, cell-based"}, "[10]": {"molecular_target": "T2, High affinity choline transporter 1 (Homo sapiens, UniProt Q9GZV3)", "T2 sequence (Q9GZV3 whole entry)": "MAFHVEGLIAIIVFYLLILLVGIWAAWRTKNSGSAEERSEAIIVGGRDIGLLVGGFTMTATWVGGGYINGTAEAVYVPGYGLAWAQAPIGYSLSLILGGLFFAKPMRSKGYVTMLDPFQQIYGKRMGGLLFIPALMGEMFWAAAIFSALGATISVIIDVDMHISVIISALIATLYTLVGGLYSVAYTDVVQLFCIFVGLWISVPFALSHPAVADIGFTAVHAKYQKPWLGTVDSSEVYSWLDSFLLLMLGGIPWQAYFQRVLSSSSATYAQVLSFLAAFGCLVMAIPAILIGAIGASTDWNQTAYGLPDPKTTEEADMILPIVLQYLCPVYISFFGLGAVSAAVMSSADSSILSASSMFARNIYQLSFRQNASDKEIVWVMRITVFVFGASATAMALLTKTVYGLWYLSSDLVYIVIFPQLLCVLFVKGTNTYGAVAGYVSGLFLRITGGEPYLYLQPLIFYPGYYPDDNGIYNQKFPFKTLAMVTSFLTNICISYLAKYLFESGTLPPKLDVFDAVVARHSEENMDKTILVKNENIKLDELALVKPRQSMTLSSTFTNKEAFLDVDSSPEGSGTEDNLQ", "assay": "human choline transporter blockers, potency – cell-based, 10-point CRC, membrane potential dye, dose response (AID 588401);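 note: membrane potential dye fluorescence of choline-evoked depolarization via CHT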", "type": "functional"}, "[11]": {"assay": "loss of viability in HepG2 cells – cell-based, CellTiter-Glo, cherry-picked, cytotoxicity control for Shn3 inhibitor project, dose response (AID 624134)", "type": "functional"}, "[12]": {"molecular_target": "T3, Ubiquitin-conjugating enzyme E2 N (Homo sapiens, UniProt P61088)", "T3 sequence (P61088 whole entry)": "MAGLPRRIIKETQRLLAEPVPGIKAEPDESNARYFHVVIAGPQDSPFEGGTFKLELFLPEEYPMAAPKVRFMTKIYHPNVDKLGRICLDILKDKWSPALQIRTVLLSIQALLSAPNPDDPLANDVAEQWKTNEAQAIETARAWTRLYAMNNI", "type": "functional"}, "[13]": {"molecular_target": "Potassium voltage-gated channel subfamily KQT member 2 (Rattus norvegicus, UniProt O88943, W236L)", "sequence (O88943 whole entry W236L)": "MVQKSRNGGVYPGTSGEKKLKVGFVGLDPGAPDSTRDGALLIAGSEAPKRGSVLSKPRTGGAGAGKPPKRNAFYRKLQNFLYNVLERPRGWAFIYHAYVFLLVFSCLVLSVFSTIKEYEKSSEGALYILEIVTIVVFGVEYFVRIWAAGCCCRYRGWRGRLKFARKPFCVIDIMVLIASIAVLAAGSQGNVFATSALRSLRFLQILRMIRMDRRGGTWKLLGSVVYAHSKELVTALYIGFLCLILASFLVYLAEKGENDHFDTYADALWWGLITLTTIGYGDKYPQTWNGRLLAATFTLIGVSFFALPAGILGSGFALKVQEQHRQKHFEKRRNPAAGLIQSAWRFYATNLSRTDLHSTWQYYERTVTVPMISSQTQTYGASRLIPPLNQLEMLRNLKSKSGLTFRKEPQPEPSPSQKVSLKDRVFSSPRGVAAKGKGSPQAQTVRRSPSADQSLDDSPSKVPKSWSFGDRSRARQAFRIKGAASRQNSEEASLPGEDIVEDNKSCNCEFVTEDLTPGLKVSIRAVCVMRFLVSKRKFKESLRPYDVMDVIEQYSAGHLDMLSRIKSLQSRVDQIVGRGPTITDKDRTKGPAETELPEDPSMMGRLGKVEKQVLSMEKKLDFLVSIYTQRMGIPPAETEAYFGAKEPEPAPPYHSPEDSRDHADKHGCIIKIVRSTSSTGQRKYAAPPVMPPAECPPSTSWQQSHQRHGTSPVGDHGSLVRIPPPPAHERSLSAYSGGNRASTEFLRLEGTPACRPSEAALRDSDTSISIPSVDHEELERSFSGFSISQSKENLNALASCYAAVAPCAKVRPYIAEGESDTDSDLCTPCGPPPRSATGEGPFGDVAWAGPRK", "assay": "potentiation of rat KCNQ2 current – cell-based, automated electrophysiology, mechanism study for KCNQ2 potentiator project, dose response (AID 2603)", "type": "functional"}, "[14]": {"molecular_target": "T2, High affinity choline transporter 1", "assay": "human choline transporter blockers, potency – cell-based, 5-point CRC, membrane potential dye, dose response (AID 504840)", "type": "functional"}, "[15]": {"molecular_target": "T3, Ubiquitin-conjugating enzyme E2 N", "type": "functional", "remark": "listed apart in the source"}, "Bcl-2-related protein A1": {"molecular_target": "T4, Bcl-2-related protein A1 (Mus musculus, UniProt Q07440)", "T4 sequence (Q07440 whole entry)": "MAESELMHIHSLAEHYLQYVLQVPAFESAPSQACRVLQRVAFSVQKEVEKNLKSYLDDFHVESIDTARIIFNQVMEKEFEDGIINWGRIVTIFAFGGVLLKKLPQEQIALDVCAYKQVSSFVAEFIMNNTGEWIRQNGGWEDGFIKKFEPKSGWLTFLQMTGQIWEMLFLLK", "type": "functional"}, "[16]": {"molecular_target": "T5, Hepatocyte nuclear factor 4-alpha (Homo sapiens, UniProt P41235)", "T5 sequence (P41235 whole entry)": "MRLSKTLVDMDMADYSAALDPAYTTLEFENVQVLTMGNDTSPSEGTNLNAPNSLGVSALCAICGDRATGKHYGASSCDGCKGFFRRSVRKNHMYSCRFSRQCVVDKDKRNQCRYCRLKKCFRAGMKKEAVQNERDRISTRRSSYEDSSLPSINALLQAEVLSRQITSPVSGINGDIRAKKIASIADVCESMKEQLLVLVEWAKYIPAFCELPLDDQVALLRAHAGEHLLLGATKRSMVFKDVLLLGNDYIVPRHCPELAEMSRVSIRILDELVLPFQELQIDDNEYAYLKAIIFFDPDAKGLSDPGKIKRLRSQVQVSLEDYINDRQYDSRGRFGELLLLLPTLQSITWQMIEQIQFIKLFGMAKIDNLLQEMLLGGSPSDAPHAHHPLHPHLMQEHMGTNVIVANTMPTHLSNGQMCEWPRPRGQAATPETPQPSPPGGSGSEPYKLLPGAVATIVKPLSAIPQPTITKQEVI", "type": "functional, cell-based"}, "[17]": {"assay": "non-specific 3'UTR reporter inhibition in Clone20-Shn3RL – cell-based, Renilla luciferase, cherry-picked, counter-screen for Shn3 inhibitor project, dose response (AID 624133)", "type": "functional"}, "[18]": {"molecular_target": "ATP-binding cassette sub-family B member 6 (Homo sapiens, UniProt Q9NP58)", "sequence (Q9NP58 whole entry)": "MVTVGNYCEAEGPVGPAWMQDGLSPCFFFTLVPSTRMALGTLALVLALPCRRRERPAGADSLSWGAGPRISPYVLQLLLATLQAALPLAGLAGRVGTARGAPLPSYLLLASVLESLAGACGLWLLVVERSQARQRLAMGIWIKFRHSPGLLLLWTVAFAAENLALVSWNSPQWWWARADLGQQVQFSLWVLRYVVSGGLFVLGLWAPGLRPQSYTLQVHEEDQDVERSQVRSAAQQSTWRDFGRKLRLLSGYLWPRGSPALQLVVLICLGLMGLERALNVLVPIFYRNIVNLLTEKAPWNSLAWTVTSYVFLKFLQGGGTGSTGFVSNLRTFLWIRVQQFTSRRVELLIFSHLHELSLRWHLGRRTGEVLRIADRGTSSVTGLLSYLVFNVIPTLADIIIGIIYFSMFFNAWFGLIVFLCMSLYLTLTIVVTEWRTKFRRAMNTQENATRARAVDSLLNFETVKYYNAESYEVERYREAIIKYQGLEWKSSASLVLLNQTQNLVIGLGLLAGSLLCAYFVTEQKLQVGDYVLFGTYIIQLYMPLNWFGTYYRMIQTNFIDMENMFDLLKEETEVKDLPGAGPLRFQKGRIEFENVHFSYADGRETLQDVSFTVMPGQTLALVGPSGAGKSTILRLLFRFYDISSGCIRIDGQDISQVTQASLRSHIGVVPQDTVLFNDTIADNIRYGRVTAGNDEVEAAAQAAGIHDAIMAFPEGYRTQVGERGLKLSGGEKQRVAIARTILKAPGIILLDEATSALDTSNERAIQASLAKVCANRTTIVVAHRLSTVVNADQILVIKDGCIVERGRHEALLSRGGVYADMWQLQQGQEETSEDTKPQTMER", "assay": "ABCB6 transporter inhibitors, porphyrin accumulation, dose response, flow cytometry, K562-ABCB6 cells, cherry pick 02 (AID 624487)", "type": "functional", "settings": "read-out: EC50_MICROM"}, "[19]": {"assay": "reduction of Shn3 3'UTR-driven luciferase in osteoblasts – cell-based, Clone20 osteoblasts, firefly luciferase, cherry-picked, dose response (AID 624132)", "type": "functional"}, "Vero [20]": {"system": "Vero", "assay": "viability of Vero cells under compound – cytotoxicity control for flavivirus capping enzyme inhibitors (AID 588742)", "type": "functional", "settings": "Chlorocebus sabaeus"}, "Protein RecA": {"molecular_target": "T6, Protein RecA (Mycobacterium tuberculosis, UniProt P9WHJ3)", "T6 sequence (P9WHJ3 whole entry)": "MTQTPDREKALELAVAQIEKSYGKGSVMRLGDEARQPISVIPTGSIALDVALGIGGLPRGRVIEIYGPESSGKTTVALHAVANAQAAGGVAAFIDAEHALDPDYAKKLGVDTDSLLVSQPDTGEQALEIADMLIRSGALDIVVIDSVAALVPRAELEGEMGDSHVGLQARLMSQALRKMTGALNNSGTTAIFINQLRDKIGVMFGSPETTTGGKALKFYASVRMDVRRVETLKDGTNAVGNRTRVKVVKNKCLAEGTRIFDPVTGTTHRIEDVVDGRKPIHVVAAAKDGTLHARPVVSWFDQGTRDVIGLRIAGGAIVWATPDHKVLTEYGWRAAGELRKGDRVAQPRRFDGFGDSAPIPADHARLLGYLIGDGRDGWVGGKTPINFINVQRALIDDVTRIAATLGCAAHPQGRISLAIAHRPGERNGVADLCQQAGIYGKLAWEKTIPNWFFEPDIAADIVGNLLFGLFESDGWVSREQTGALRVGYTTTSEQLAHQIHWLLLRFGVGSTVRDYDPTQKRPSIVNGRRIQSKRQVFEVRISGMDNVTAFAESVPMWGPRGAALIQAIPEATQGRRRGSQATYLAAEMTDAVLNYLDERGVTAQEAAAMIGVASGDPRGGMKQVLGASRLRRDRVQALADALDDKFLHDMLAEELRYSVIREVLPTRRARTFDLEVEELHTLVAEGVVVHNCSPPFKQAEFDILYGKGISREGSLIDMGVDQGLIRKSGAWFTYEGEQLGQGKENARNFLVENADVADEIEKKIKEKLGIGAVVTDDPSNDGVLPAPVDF", "assay": "Fluorescence Cell-Free Homogeneous Dose Retest to Identify Inhibitors of RecA-Intein Splicing Activity. [Related pubchem assays (depositor defined):AID2097, AID2223, AID489010, AID492950]", "type": "functional"}, "Genome polyprotein": {"molecular_target": "Genome polyprotein (dengue virus type 2, UniProt P29990)", "sequence (P29990 2492-3391 limits assumed)": "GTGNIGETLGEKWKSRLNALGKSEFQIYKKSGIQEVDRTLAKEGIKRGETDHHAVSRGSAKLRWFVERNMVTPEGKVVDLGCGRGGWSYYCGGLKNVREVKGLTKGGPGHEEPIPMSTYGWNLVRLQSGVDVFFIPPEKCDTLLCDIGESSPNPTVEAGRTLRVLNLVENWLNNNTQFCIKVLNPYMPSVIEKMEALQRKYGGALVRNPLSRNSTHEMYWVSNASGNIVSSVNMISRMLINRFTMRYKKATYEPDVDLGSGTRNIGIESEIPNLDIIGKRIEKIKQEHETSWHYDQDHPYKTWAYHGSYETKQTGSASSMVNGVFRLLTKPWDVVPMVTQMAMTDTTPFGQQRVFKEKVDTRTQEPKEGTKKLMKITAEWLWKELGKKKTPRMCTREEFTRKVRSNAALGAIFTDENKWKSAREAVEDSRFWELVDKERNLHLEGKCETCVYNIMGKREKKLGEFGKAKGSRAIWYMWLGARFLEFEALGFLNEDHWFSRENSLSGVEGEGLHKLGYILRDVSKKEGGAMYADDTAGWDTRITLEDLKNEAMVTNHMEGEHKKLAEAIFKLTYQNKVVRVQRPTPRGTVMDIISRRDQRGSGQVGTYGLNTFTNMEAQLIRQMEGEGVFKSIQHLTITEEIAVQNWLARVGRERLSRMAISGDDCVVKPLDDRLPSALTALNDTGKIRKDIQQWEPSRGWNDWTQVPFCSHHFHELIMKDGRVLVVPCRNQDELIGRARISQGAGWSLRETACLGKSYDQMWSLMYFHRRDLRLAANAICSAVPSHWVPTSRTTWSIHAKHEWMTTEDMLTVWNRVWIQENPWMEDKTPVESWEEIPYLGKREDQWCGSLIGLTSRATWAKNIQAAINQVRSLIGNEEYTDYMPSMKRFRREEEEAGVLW", "assay": "flavivirus cap methylation enzyme inhibition – biochemical, confirmation dose response, primary screen (AID 588689)", "type": "functional"}, "[21]": {"molecular_target": "Diphosphomevalonate decarboxylase (Streptococcus pneumoniae serotype 2 (strain D39 / NCTC 7466), UniProt Q9FD53)", "sequence (Q9FD53 whole entry)": "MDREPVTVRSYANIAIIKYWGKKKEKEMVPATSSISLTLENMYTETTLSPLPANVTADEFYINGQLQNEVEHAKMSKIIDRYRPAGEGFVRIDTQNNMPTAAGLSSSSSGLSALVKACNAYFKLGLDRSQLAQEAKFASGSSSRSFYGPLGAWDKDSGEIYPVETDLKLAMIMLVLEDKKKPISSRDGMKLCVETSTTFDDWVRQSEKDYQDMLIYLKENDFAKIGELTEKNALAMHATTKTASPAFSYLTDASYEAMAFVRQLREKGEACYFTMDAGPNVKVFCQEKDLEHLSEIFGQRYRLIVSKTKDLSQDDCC", "assay": "diphosphomevalonate decarboxylase inhibitor confirmation – biochemical, cuvette format, coupled NADH fluorescence (AID 1028)", "type": "functional"}}, "note": "Calls of active or inactive are those of the source.", "data": [{"smiles": "O=C1CCCC2=C1C(c1ccco1)Nc1ccc3ccccc3c12", "note": "(configuration not stated)", "values": [{"measurement": "IC50", "setting": "[1]", "value": "3.2 µM (active)"}, {"measurement": "IC50", "setting": "[2]", "value": "6.62 µM (active)"}, {"measurement": "CC50", "setting": "[3]", "value": "> 40 µM (active)"}, {"measurement": "IC50", "setting": "Ephrin type-A receptor 4", "value": "11.8 µM (active)"}, {"measurement": "IC50", "setting": "Bcl-2-like protein 10", "value": "7.53 µM (active)"}]}, {"smiles": "O=C(CSc1nc2ccc(F)cc2c(=O)n1-c1ccccc1)Nc1ccc2c(c1)CCC2", "values": [{"measurement": "CC50", "setting": "Vero [4]", "value": "> 200 µM (active)"}]}, {"smiles": "CCN1CC=C(c2c[nH]c3ccccc23)CC1", "values": [{"measurement": "EC50", "setting": "[5]", "value": "> 50 µM (not active)"}]}, {"smiles": "CC1=[N+](C)c2ccc3ccccc3c2C1(C)C", "values": [{"measurement": "AC50", "setting": "[6]", "value": "27.4 µM (active)"}, {"measurement": "AC50", "setting": "INS1", "value": "6.8 µM (active)"}, {"measurement": "IC50", "setting": "[7]", "value": "> 50 µM (not active)"}, {"measurement": "EC50", "setting": "[8]", "value": "> 60 µM (not active)"}, {"measurement": "EC50", "setting": "[9]", "value": "2.83 µM (active)"}]}, {"smiles": "CCCc1nnc(NC(=O)c2nc(S(=O)(=O)Cc3cccc(C)c3)ncc2Cl)s1", "values": [{"measurement": "IC50", "setting": "[10]", "value": "3.16 µM (active)"}, {"measurement": "AC50", "setting": "[11]", "value": "> 70 µM (inactive)"}, {"measurement": "IC50", "setting": "[12]", "value": "12.3 µM (active)"}, {"measurement": "EC50", "setting": "[13]", "value": "2.89 µM (active)"}, {"measurement": "IC50", "setting": "[14]", "value": "3.9 µM (active)"}, {"measurement": "IC50", "setting": "[15]", "value": "> 20 µM (inactive)"}, {"measurement": "IC50", "setting": "Bcl-2-related protein A1", "value": "> 20 µM (inactive)"}, {"measurement": "IC50", "setting": "[16]", "value": "5.71 µM (active)"}, {"measurement": "AC50", "setting": "[17]", "value": "10 µM (active)"}, {"measurement": "EC50", "setting": "[18]", "value": "60.6 µM (active)"}, {"measurement": "AC50", "setting": "[19]", "value": "2.55 µM (active)"}, {"measurement": "CC50", "setting": "Vero [20]", "value": "> 40 µM (active)"}, {"measurement": "EC50", "setting": "Protein RecA", "value": "> 380 µM (inactive)"}, {"measurement": "IC50", "setting": "Genome polyprotein", "value": "> 100 µM (active)"}]}, {"smiles": "O=C(c1cccc(-n2sc3ccccc3c2=O)c1)N1CCOCC1", "values": [{"measurement": "IC50", "setting": "[21]", "value": "23.1 µM (active)"}]}]}
